Patent publication US20200368260A1, “USE OF BENZOPYRAN COMPOUND IN PREPARATION OF PRODUCT FOR REGULATING LIPID METABOLISM AND COMPOSITION OF THE SAME” (priority 2019, published 2020)

What was measured:
Type in all cases: cell-based, human
HepG2 cells = experiment: MTT cell viability experiment, effect of treatment time (oleic acid NAFLD cell model); details: for cell viability among several other groups of treatment time: other treatment times (0, 12, 24, 48 h); for cell viability: treated for 6 h, FIG. 3; for cytotoxicity with the increase in time: treatment up to 48 h
Protocol: The HepG2 cells were seeded into a 96-well culture plate at 1×10^4 cells per well, incubated in a DMEM culture medium containing 10% fetal bovine serum for 12 h until complete confluence of the cells, and then the culture medium was replaced by respective concentrations of 0, 0.5, 1, 1.5, 2, 2.5, 3, 3.5, 4 mM of oleic acid formulated with a serum-free culture medium to treat the cells for 0, 24, 48, and 72 hours, with 4 replicate wells being set for each concentration. After the completion of the incubation, 10 μL of a freshly prepared MTT solution at a final concentration of 5 mg/mL was added into each well and the culture was continued for 4 h. Then, the liquid in the culture well was pipetted off to terminate the reaction. Each well was added with 100 μL of DMSO, and shaken fully on a plate shaker for […] such that the crystalline was fully dissolved, and an A490 absorbance was measured on a microplate reader. The cell proliferation viability was calculated according to the following formula.
Cell proliferation viability (%)=(the OD of drug group/the OD of blank group)×100%
1. The culture, model establishment and experimental steps of the cells were operated according to 1.2.1. When the cells were cultured to the confluence of 70%, the cells were treated with 0.5 mM for 24 h to establish a cell model of nonalcoholic fatty liver disease. The anthocyanin compound mother liquor was diluted to 10 μM to treat the cells for 0, 6, 12, 24, and 48 h. The MTT cell proliferation viability experiment determined the optimal dosing time.

high-fat HepG2 cells [1] = experiment: Total cholesterol (TC) content in the cells, TC kit; details: for level of TC in a high fat cell: FIGS. 4A, 5A; for level of TC, compared with control group and low dose group: medium and high doses
Protocol: (§1) 2. The culture, model establishment and experimental steps of the cells were operated according to the above steps. The anthocyanin compound mother liquor was diluted to 0, 0.1, 1, 10, 50, and 100 μM to treat the high-fat HepG2 cells, respectively.
(§2) 3. The culture solution was pipetted off, gently washed with PBS for 3 times, and added with trypsin to digest the cells for 1 min The cell suspension was pipetted into a 1.5 mL sterile EP tube, centrifuged at 1000 rpm for 10 minutes, the supernatant was discarded, the pellet was added with an appropriate amount of PBS, ultrasonically crushed under the condition of an ice-water bath, and the prepared homogenate was not centrifuged and was ready for determination.
The total cholesterol (TC) content in the cells was determined according to the operating instructions of a TC kit. The protein content in the cells was determined by a BCA protein concentration kit, and the total cholesterol content in the cells was calibrated with the protein content.

high-fat HepG2 cells [2] = experiment: Cellular alanine aminotransferase (ALT) content, ALT kit; details: for level of ALT in a high fat cell: FIGS. 4C, 5C; for level of ALT, compared with control group and low dose group: medium and high doses
Protocol: as §1, §2
The intracellular alanine aminotransferase (ALT) content was determined according to the operating instructions of an ALT kit.

high-fat HepG2 cells [3] = experiment: Cellular aspartate aminotransferase (AST) content, AST kit; details: for level of AST in a high fat cell: FIGS. 4D, 5D; for level of AST, compared with control group and low dose group: medium and high doses
Protocol: as §1, §2
The intracellular aspartate aminotransferase (AST) content was determined according to the operating instructions of an AST kit. 1.2.4 Effect of petunidin-3-O-β-D glucoside and malvidin-3-O-β-D glucose on autophagy of HepG2 cells

APG7 = experiment: Western blotting, protein expression in oleic acid induced HepG2 cells
Protocol: (§3) The culture, model establishment and drug treatment manners of the cells were operated according to 1.2.3. After completion, cells were collected, cytoplasmic proteins were extracted, and protein electrophoresis was conducted after quantification. Particularly the following methods were used: When the cell confluence reached 70%, 0.5 mM oleic acid was added to treat the cells for 24 h. After completion, the cells were collected and the cytoplasmic protein was extracted, and the protein electrophoresis was conducted after quantification. The electrophoresis method was as follows: After cell culture was completed, the culture plate was taken out, the culture medium in the well was discarded, the pellet was washed twice with PBS, placed onto an ice bath, and added with 100 μL of a protein lysis buffer (RIPA) (PMSF was added into the cell lysis buffer at 1:1000 within few minutes before the use, with a final concentration of 1 mM) per well. After the cells were lysed for about […], the cells were scraped off with a cell scraper, pipetted into a 1.5 mL centrifuge tube (which could be crushed with an ultrasonic cell disruptor for 3-5 times), then centrifuged at 12,000 rpm under 4° C. for 15-20 mM. The supernatant was taken and transferred into a new centrifuge tube for protein quantification or storage at −80° C. Theprotein content was determined by a BCA method, and the operation method was carried out according to the instructions of the kit. After the protein concentration was measured, the protein sample was added with a 5× loading buffer and mixed uniformly at 1:4, then subjected to water bath at 100° C. for […] (entangling with a sealing film to prevent bouncing off), and stored at 4° C. The specific operation method of protein electrophoresis was in accordance with the relevant references. Since each of the molecular weight of the target proteins was within 10-80 KDa except for FASN (the separation gel was prepared according to the following table), the separation gel concentration was selected to be 10%, and the concentration of the FASN protein separation gel was selected to be 6%. A spacer gel was formulated according to the following table, and sample loading was conducted. After completion, electrophoresis should be conducted as soon as possible, where concentration was conducted at 80 v for 30 min, and then electrophoresis was conducted at 120 v until the front edge ran to the lower edge of the separation gel, and the electrophoresis was stopped. 3. Transferring The PVDF membrane was immersed in methanol for 1 min in advance and then soaked with a 1× transfer solution for 10 min. the gel was removed, the excess gel was cut off from top and bottom and left and right, and then the gel was assembled in the order of filter paper-gel-membrane-filter paper from a blackboard to a whiteboard, the bubbles were removed from therebetween, and the assembly was clamped by a clip, and placed in a transfer slot with the black side to black side, and white side to white side. After the completion of the transfer, the PVDF membrane was blocked with a TB ST room-temperature shaker containing 5% skim milk powder for 1 hour. The primary antibody was diluted with TBST containing 5% BSA or 5% skim milk powder (see the antibody instructions for specific dilution multiple). After the end of blocking, the PVDF membrane was incubated with the well-diluted primary antibody overnight at 4° C.

APGSL = experiment: as above; details: high dose group
Protocol: as §3

Row | Structure (SMILES) | cell viability among several other groups of treatment time (HepG2 cells) | cell viability (HepG2 cells) | cytotoxicity with the increase in time (HepG2 cells) | level of TC in a high fat cell (high-fat HepG2 cells [1]) | level of TC, compared with control group and low dose group (high-fat HepG2 cells [1]) | level of ALT in a high fat cell (high-fat HepG2 cells [2]) | level of ALT, compared with control group and low dose group (high-fat HepG2 cells [2]) | level of AST in a high fat cell (high-fat HepG2 cells [3]) | level of AST, compared with control group and low dose group (high-fat HepG2 cells [3]) | protein expression of APG7 (APG7; high dose group) | protein expression of APG7 (APG7; low doses) | protein expression of APGSL (APGSL)
1 | COc1cc(-c2[o+]c3cc(O)cc(O)c3cc2O[C@@H]2O[C@H](CO)[C@@H](O)[C@H](O)[C@H]2O)cc(OC)c1O [malvidin-3-O-β-D glucoside] | no significant difference | significantly increased | not cytotoxic | reduce | very significant reduction | reduce | very significant reduction | reduce | very significant reduction | inhibition trend | significant effect | inhibition trend
2 | COc1cc(-c2[o+]c3cc(O)cc(O)c3cc2O[C@@H]2O[C@H](CO)[C@@H](O)[C@H](O)[C@H]2O)cc(O)c1O [petunidin-3-O-β-D glucoside] | no significant difference | significantly increased | not cytotoxic | reduce | very significant reduction | reduce | very significant reduction | reduce | very significant reduction | inhibition trend | significant effect | inhibition trend
